Assay results: PubChem BioAssay (NCI)
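Values below derive from 48-hour exposures of cells grown in 96-well plates, with endpoints linearly interpolated between the two concentrations bracketing the appropriate inhibition level. At the TGI there is no net growth.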

What was measured:
Assay in all cases: inhibition of tumour cell growth, NCI panel, 48 h
MCF7 breast = system: MCF7 breast
CCRF-CEM leukemia = system: CCRF-CEM leukemia
M14 melanoma = system: M14 melanoma
SK-MEL-28 melanoma = system: SK-MEL-28 melanoma
HL-60(TB) leukemia = system: HL-60(TB) leukemia
HCT-116 colon = system: HCT-116 colon
BT-549 breast = system: BT-549 breast
A498 renal = system: A498 renal
OVCAR-3 ovarian = system: OVCAR-3 ovarian
HOP-62 NSCLC = system: HOP-62 NSCLC
CAKI-1 renal = system: CAKI-1 renal
U251 CNS = system: U251 CNS
RXF 393 renal = system: RXF 393 renal
SF-295 CNS = system: SF-295 CNS
SF-268 CNS = system: SF-268 CNS
OVCAR-4 ovarian = system: OVCAR-4 ovarian
SN12C renal = system: SN12C renal
NCI-H522 lung = system: NCI-H522 lung
MDA-MB-435 = system: MDA-MB-435
MDA-MB-231 breast = system: MDA-MB-231 breast
HCC-2998 colon = system: HCC-2998 colon
IGROV1 ovarian = system: IGROV1 ovarian
SNB-75 CNS = system: SNB-75 CNS
PC-3 prostate = system: PC-3 prostate
HS 578T breast = system: HS 578T breast
KM12 colon = system: KM12 colon
ACHN renal = system: ACHN renal
NCI-H460 lung = system: NCI-H460 lung
UACC-257 melanoma = system: UACC-257 melanoma
SNB-19 CNS = system: SNB-19 CNS
RPMI-8226 leukemia = system: RPMI-8226 leukemia
LOX IMVI melanoma = system: LOX IMVI melanoma
NCI-H23 lung = system: NCI-H23 lung
OVCAR-5 ovarian = system: OVCAR-5 ovarian
MALME-3M melanoma = system: MALME-3M melanoma
HT29 colon = system: HT29 colon
A549 NSCLC = system: A549 NSCLC
EKVX NSCLC = system: EKVX NSCLC
SR leukemia = system: SR leukemia
OVCAR-8 ovarian = system: OVCAR-8 ovarian
NCI/ADR-RES ovarian = system: NCI/ADR-RES ovarian
TK-10 renal = system: TK-10 renal
MOLT-4 leukemia = system: MOLT-4 leukemia
COLO 205 colon = system: COLO 205 colon
SK-MEL-2 melanoma = system: SK-MEL-2 melanoma
SW-620 colon = system: SW-620 colon
MDA-N = system: MDA-N
HCT-15 colon = system: HCT-15 colon
T-47D breast = system: T-47D breast
K-562 leukemia = system: K-562 leukemia
SF-539 CNS = system: SF-539 CNS
UACC-62 melanoma = system: UACC-62 melanoma
UO-31 renal = system: UO-31 renal
HOP-92 NSCLC = system: HOP-92 NSCLC
DU-145 prostate = system: DU-145 prostate
786-0 renal = system: 786-0 renal
SK-MEL-5 melanoma = system: SK-MEL-5 melanoma
NCI-H226 lung = system: NCI-H226 lung
SK-OV-3 ovarian = system: SK-OV-3 ovarian

SMILES: CC1=NN(C(=O)CC(=O)Nc2ccccc2)C(=O)C1N=Nc1ccc(C(=O)O)cc1 (centres undefined)
- TGI (MCF7 breast): > 100 µM
- TGI (CCRF-CEM leukemia): > 100 µM
- TGI (M14 melanoma): > 100 µM
- TGI (SK-MEL-28 melanoma): > 100 µM
- TGI (HL-60(TB) leukemia): > 100 µM
- TGI (HCT-116 colon): > 100 µM
- TGI (BT-549 breast): > 100 µM
- TGI (A498 renal): > 100 µM
- TGI (OVCAR-3 ovarian): > 100 µM
- TGI (HOP-62 NSCLC): > 100 µM
- TGI (CAKI-1 renal): > 100 µM
- TGI (U251 CNS): > 100 µM
- TGI (RXF 393 renal): > 100 µM
- TGI (SF-295 CNS): > 100 µM
- TGI (SF-268 CNS): > 100 µM
- TGI (OVCAR-4 ovarian): > 100 µM
- TGI (SN12C renal): > 100 µM
- TGI (NCI-H522 lung): > 100 µM
- TGI (MDA-MB-435): > 100 µM
- TGI (MDA-MB-231 breast): > 100 µM
- TGI (HCC-2998 colon): > 100 µM
- TGI (IGROV1 ovarian): > 100 µM
- TGI (SNB-75 CNS): > 100 µM
- TGI (PC-3 prostate): > 100 µM
- TGI (HS 578T breast): > 100 µM
- TGI (KM12 colon): > 100 µM
- TGI (ACHN renal): > 100 µM
- TGI (NCI-H460 lung): > 100 µM
- TGI (UACC-257 melanoma): > 100 µM
- TGI (SNB-19 CNS): > 100 µM
- TGI (RPMI-8226 leukemia): > 100 µM
- TGI (LOX IMVI melanoma): > 100 µM
- TGI (NCI-H23 lung): > 100 µM
- TGI (OVCAR-5 ovarian): > 100 µM
- TGI (MALME-3M melanoma): > 100 µM
- TGI (HT29 colon): > 100 µM
- TGI (A549 NSCLC): > 100 µM
- TGI (EKVX NSCLC): > 100 µM
- TGI (SR leukemia): > 100 µM
- TGI (OVCAR-8 ovarian): > 100 µM
- TGI (NCI/ADR-RES ovarian): > 100 µM
- TGI (TK-10 renal): > 100 µM
- TGI (MOLT-4 leukemia): > 100 µM
- TGI (COLO 205 colon): > 100 µM
- TGI (SK-MEL-2 melanoma): > 100 µM
- TGI (SW-620 colon): > 100 µM
- TGI (MDA-N): > 100 µM
- TGI (HCT-15 colon): > 100 µM
- TGI (T-47D breast): > 100 µM
- TGI (K-562 leukemia): > 100 µM
- TGI (SF-539 CNS): > 100 µM
- TGI (UACC-62 melanoma): > 100 µM
- TGI (UO-31 renal): > 100 µM
- TGI (HOP-92 NSCLC): 87.1 µM
- TGI (DU-145 prostate): > 100 µM
- TGI (786-0 renal): > 100 µM
- TGI (SK-MEL-5 melanoma): > 100 µM

SMILES: Nc1ccc(I)cn1
- TGI (MCF7 breast): > 100 µM
- TGI (CCRF-CEM leukemia): > 100 µM
- TGI (M14 melanoma): > 100 µM
- TGI (SK-MEL-28 melanoma): > 100 µM
- TGI (HL-60(TB) leukemia): > 100 µM
- TGI (HCT-116 colon): > 100 µM
- TGI (BT-549 breast): > 100 µM
- TGI (NCI-H226 lung): > 100 µM
- TGI (A498 renal): > 100 µM
- TGI (OVCAR-3 ovarian): > 100 µM
- TGI (HOP-62 NSCLC): > 100 µM
- TGI (CAKI-1 renal): > 100 µM
- TGI (U251 CNS): > 100 µM
- TGI (SK-OV-3 ovarian): > 100 µM
- TGI (RXF 393 renal): > 100 µM
- TGI (SF-295 CNS): > 100 µM
- TGI (SF-268 CNS): > 100 µM
- TGI (OVCAR-4 ovarian): > 100 µM
- TGI (SN12C renal): > 100 µM
- TGI (NCI-H522 lung): > 100 µM
- TGI (MDA-MB-435): > 100 µM
- TGI (MDA-MB-231 breast): > 100 µM
- TGI (HCC-2998 colon): > 100 µM
- TGI (IGROV1 ovarian): > 100 µM
- TGI (SNB-75 CNS): > 100 µM
- TGI (PC-3 prostate): > 100 µM
- TGI (HS 578T breast): > 100 µM
- TGI (KM12 colon): > 100 µM
- TGI (ACHN renal): > 100 µM
- TGI (NCI-H460 lung): > 100 µM
- TGI (SNB-19 CNS): > 100 µM
- TGI (RPMI-8226 leukemia): > 100 µM
- TGI (LOX IMVI melanoma): > 100 µM
- TGI (NCI-H23 lung): > 100 µM
- TGI (OVCAR-5 ovarian): > 100 µM
- TGI (MALME-3M melanoma): > 100 µM
- TGI (HT29 colon): > 100 µM
- TGI (A549 NSCLC): > 100 µM
- TGI (EKVX NSCLC): > 100 µM
- TGI (SR leukemia): > 100 µM
- TGI (OVCAR-8 ovarian): > 100 µM
- TGI (NCI/ADR-RES ovarian): > 100 µM
- TGI (MOLT-4 leukemia): > 100 µM
- TGI (COLO 205 colon): > 100 µM
- TGI (SK-MEL-2 melanoma): > 100 µM
- TGI (SW-620 colon): > 100 µM
- TGI (MDA-N): > 100 µM
- TGI (HCT-15 colon): > 100 µM
- TGI (T-47D breast): > 100 µM
- TGI (K-562 leukemia): > 100 µM
- TGI (UACC-62 melanoma): > 100 µM
- TGI (UO-31 renal): > 100 µM
- TGI (DU-145 prostate): > 100 µM
- TGI (786-0 renal): > 100 µM
- TGI (SK-MEL-5 melanoma): > 100 µM

SMILES: O=C1O/C(=C\c2ccc(O)c(Br)c2)C(c2ccc(O)c(Cl)c2)=C1Br
- TGI (MCF7 breast): 34.6 µM
- TGI (CCRF-CEM leukemia): 51.1 µM
- TGI (M14 melanoma): 36.5 µM
- TGI (SK-MEL-28 melanoma): 32 µM
- TGI (HL-60(TB) leukemia): > 100 µM
- TGI (HCT-116 colon): 26.5 µM
- TGI (BT-549 breast): 63.1 µM
- TGI (A498 renal): 37.3 µM
- TGI (OVCAR-3 ovarian): 33.7 µM
- TGI (HOP-62 NSCLC): 40.9 µM
- TGI (CAKI-1 renal): 75.2 µM
- TGI (U251 CNS): 29.8 µM
- TGI (SK-OV-3 ovarian): 40.9 µM
- TGI (RXF 393 renal): 40.9 µM
- TGI (SF-295 CNS): 30.4 µM
- TGI (SF-268 CNS): 33.7 µM
- TGI (OVCAR-4 ovarian): 25.8 µM
- TGI (SN12C renal): 86.4 µM
- TGI (NCI-H522 lung): 28.6 µM
- TGI (MDA-MB-435): 46.5 µM
- TGI (MDA-MB-231 breast): > 100 µM
- TGI (HCC-2998 colon): 16.7 µM
- TGI (IGROV1 ovarian): 47.2 µM
- TGI (PC-3 prostate): 32.7 µM
- TGI (HS 578T breast): 70.9 µM
- TGI (KM12 colon): 31.2 µM
- TGI (ACHN renal): 33.2 µM
- TGI (NCI-H460 lung): 48.4 µM
- TGI (UACC-257 melanoma): 33.3 µM
- TGI (SNB-19 CNS): 66.5 µM
- TGI (RPMI-8226 leukemia): 38.6 µM
- TGI (LOX IMVI melanoma): 71.9 µM
- TGI (NCI-H23 lung): 54.1 µM
- TGI (OVCAR-5 ovarian): 33.4 µM
- TGI (MALME-3M melanoma): 37.3 µM
- TGI (HT29 colon): 25.5 µM
- TGI (A549 NSCLC): > 100 µM
- TGI (EKVX NSCLC): 49.3 µM
- TGI (SR leukemia): 28.1 µM
- TGI (OVCAR-8 ovarian): 90 µM
- TGI (NCI/ADR-RES ovarian): 75.7 µM
- TGI (TK-10 renal): 48.3 µM
- TGI (MOLT-4 leukemia): > 100 µM
- TGI (COLO 205 colon): 32 µM
- TGI (SK-MEL-2 melanoma): 39.2 µM
- TGI (SW-620 colon): 34.1 µM
- TGI (MDA-N): 64.9 µM
- TGI (HCT-15 colon): 25.3 µM
- TGI (T-47D breast): 47 µM
- TGI (K-562 leukemia): 58.5 µM
- TGI (SF-539 CNS): 44 µM
- TGI (UACC-62 melanoma): 31.6 µM
- TGI (UO-31 renal): 77.4 µM
- TGI (HOP-92 NSCLC): 35.7 µM
- TGI (DU-145 prostate): 43 µM
- TGI (786-0 renal): 40.2 µM
- TGI (SK-MEL-5 melanoma): 29.8 µM
